Measurements reported in US12655116B2, “Substituted isophthalic acid diamides” (Bayer Aktiengesellschaft, priority 2020, dated 2026).

What was measured:
PHBPU [1] = experiment: Post-emergence herbicidal action against PHBPU; type: in vivo, Pharbitis purpurea; conditions: Ipomoea purpurea, 504 h, dosage 20 g/ha
Outline: (§1)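 Visual % rating (0% = as untreated, 100% = dead) ~3 wk after spraying one-leaf-stage plants grown in sandy loam; WP/EC in water at 600–800 l/ha, 0.2% wetting agent.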

AMARE [2] = experiment: Post-emergence herbicidal action against AMARE; type: in vivo, Amaranthus retroflexus; conditions: Amaranthus retroflexus, 504 h, 20 g/ha, visual assessment about 3 weeks after treatment, 100% = plants have died, 0% = like control plants
Outline: as §1

ECHCG [3] = experiment: Post-emergence herbicidal action against ECHCG; type: in vivo, Echinochloa crus-galli; conditions: Echinochloa crus-galli, 504 h
Outline: as §1

DIGSA [4] = experiment: Post-emergence herbicidal action against DIGSA; type: in vivo, Digitaria sanguinalis; conditions: Digitaria sanguinalis, 504 h
Outline: as §1

POLCO [5] = experiment: Post-emergence herbicidal action against POLCO; type: in vivo, Polygonum convolvulus; conditions: Fallopia convolvulus, 504 h, dosage 20 g/ha
Outline: as §1

VIOTR [6] = experiment: Pre-emergence herbicidal action against VIOTR; type: in vivo, Viola tricolor; conditions: Viola tricolor, 504 h
Outline: (§2)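 Sandy loam pots, seeds covered with soil, then surface-treated with WP or EC formulations at 600–800 l/ha water plus 0.2% wetting agent. Greenhouse, 3 weeks. Percent damage vs untreated controls.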

ALOMY [7] = experiment: Post-emergence herbicidal action against ALOMY; type: in vivo, Alopecurus myosuroides; conditions: Alopecurus myosuroides, 504 h, visual assessment about 3 weeks after treatment vs untreated controls
Outline: as §1

PHBPU [8] = experiment: Pre-emergence herbicidal action against PHBPU; type: in vivo, Pharbitis purpurea; conditions: Ipomoea purpurea, 504 h
Outline: as §2

MATIN [9] = experiment: Post-emergence herbicidal action against MATIN; type: in vivo, Matricaria inodora; conditions: Tripleurospermum inodorum, 504 h
Outline: as §1

LOLRI = experiment: Pre-emergence herbicidal action against LOLRI; type: in vivo, Lolium rigidum; conditions: Lolium rigidum, 504 h, 80 g/ha
Outline: as §2

MATIN [10] = experiment: Pre-emergence herbicidal action against MATIN; type: in vivo, Matricaria inodora; conditions: Tripleurospermum inodorum, 504 h
Outline: as §2

SETVI [11] = experiment: Pre-emergence herbicidal action against SETVI; type: in vivo, Setaria viridis; conditions: Setaria viridis, 504 h, dosage 80 g/ha
Outline: as §2

DIGSA [12] = experiment: Pre-emergence herbicidal action against DIGSA; type: in vivo, Digitaria sanguinalis; conditions: Digitaria sanguinalis, 504 h
Outline: as §2

AMARE [13] = experiment: Pre-emergence herbicidal action against AMARE; type: in vivo, Amaranthus retroflexus; conditions: Amaranthus retroflexus, 504 h, scored visually after 3 weeks vs untreated controls, 100% = plants have died, 0% = like control plants
Outline: as §2

VERPE [14] = experiment: Post-emergence herbicidal action against VERPE; type: in vivo, Veronica persica; conditions: Veronica persica, 504 h
Outline: as §1

ABUTH [15] = experiment: Pre-emergence herbicidal action against ABUTH; type: in vivo, Abutilon theophrasti; conditions: Abutilon theophrasti, 504 h
Outline: as §2

AVEFA [16] = experiment: Pre-emergence herbicidal action against AVEFA; type: in vivo, Avena fatua; conditions: Avena fatua, 504 h; 80 g/ha, pre-emergence
Outline: as §2

VIOTR [17] = experiment: Post-emergence herbicidal action against VIOTR; type: in vivo, Viola tricolor; conditions: Viola tricolor, 504 h, 20 g/ha
Outline: as §1

ALOMY [18] = experiment: Pre-emergence herbicidal action against ALOMY; type: in vivo, Alopecurus myosuroides; conditions: Alopecurus myosuroides, 504 h; 80 g/ha, pre-emergence, scored visually after 3 weeks vs untreated controls (100% = plants have died, 0% = like control plants)
Outline: as §2

SETVI [19] = experiment: Post-emergence herbicidal action against SETVI; type: in vivo, Setaria viridis; conditions: Setaria viridis, 504 h, dosage 20 g/ha
Outline: as §1

AVEFA [20] = experiment: Post-emergence herbicidal action against AVEFA; type: in vivo, Avena fatua; conditions: Avena fatua, 504 h, 20 g/ha, visual assessment about 3 weeks after treatment, 100% = plants have died, 0% = like control plants
Outline: as §1

VERPE [21] = experiment: Pre-emergence herbicidal action against VERPE; type: in vivo, Veronica persica; conditions: Veronica persica, 504 h
Outline: as §2

POLCO [22] = experiment: Pre-emergence herbicidal action against POLCO; type: in vivo, Polygonum convolvulus; conditions: Fallopia convolvulus, 504 h, dosage 80 g/ha
Outline: as §2

ABUTH [23] = experiment: Post-emergence herbicidal action against ABUTH; type: in vivo, Abutilon theophrasti; conditions: Abutilon theophrasti, 504 h, visual assessment about 3 weeks after treatment vs untreated controls
Outline: as §1

ECHCG [24] = experiment: Pre-emergence herbicidal action against ECHCG; type: in vivo, Echinochloa crus-galli; conditions: Echinochloa crus-galli, 504 h
Outline: as §2

SMILES: CCc1c(C(=O)Nc2nnnn2C)ccc(C(F)(F)F)c1C(=O)NC [Example 1-271]
- pest or weed control at 20 g/ha (PHBPU [1]): 90%
- pest or weed control at 20 g/ha (AMARE [2]): 90%
- pest or weed control at 5 g/ha (ECHCG [3]; dosage 5 g/ha): 80%
- pest or weed control at 20 g/ha (ECHCG [3]; dosage 20 g/ha): 80%
- pest or weed control at 5 g/ha (DIGSA [4]; 5 g/ha): 90%
- pest or weed control at 20 g/ha (DIGSA [4]; 20 g/ha): 100%
- pest or weed control at 20 g/ha (POLCO [5]): 80%
- pest or weed control at 20 g/ha (VIOTR [6]; dosage 20 g/ha): 100%
- pest or weed control at 80 g/ha (VIOTR [6]; dosage 80 g/ha): 100%
- pest or weed control at 5 g/ha (ALOMY [7]; dosage 5 g/ha): 80%
- pest or weed control at 20 g/ha (ALOMY [7]; dosage 20 g/ha): 90%
- pest or weed control at 20 g/ha (PHBPU [8]; dosage 20 g/ha): 80%
- pest or weed control at 80 g/ha (PHBPU [8]; dosage 80 g/ha): 90%
- pest or weed control at 5 g/ha (MATIN [9]; dosage 5 g/ha): 90%
- pest or weed control at 20 g/ha (MATIN [9]; dosage 20 g/ha): 90%
- pest or weed control at 80 g/ha (LOLRI): 100%
- pest or weed control at 20 g/ha (MATIN [10]; dosage 20 g/ha): 100%
- pest or weed control at 80 g/ha (MATIN [10]; dosage 80 g/ha): 100%
- pest or weed control at 80 g/ha (SETVI [11]): 100%
- pest or weed control at 20 g/ha (DIGSA [12]; dosage 20 g/ha): 100%
- pest or weed control at 80 g/ha (DIGSA [12]; dosage 80 g/ha): 100%
- pest or weed control at 20 g/ha (AMARE [13]; 20 g/ha): 100%
- pest or weed control at 80 g/ha (AMARE [13]; 80 g/ha): 100%
- pest or weed control at 5 g/ha (VERPE [14]; 5 g/ha): 80%
- pest or weed control at 20 g/ha (VERPE [14]; 20 g/ha): 90%
- pest or weed control at 80 g/ha (ABUTH [15]; 80 g/ha, scored visually after 3 weeks vs untreated controls (100% = plants have died, 0% = like control plants)): 100%
- pest or weed control at 20 g/ha (ABUTH [15]; dosage 20 g/ha, scored visually after 3 weeks vs untreated controls, 100% = plants have died, 0% = like control plants, read-out: Pre-emergence action against ABUTH (herbicidal activity in percent)): 100%
- pest or weed control at 80 g/ha (AVEFA [16]): 80%
- pest or weed control at 20 g/ha (VIOTR [17]): 90%
- pest or weed control at 80 g/ha (ALOMY [18]): 90%
- pest or weed control at 20 g/ha (SETVI [19]): 80%
- pest or weed control at 20 g/ha (AVEFA [20]): 80%
- pest or weed control at 20 g/ha (VERPE [21]; dosage 20 g/ha): 90%
- pest or weed control at 80 g/ha (VERPE [21]; dosage 80 g/ha): 100%
- pest or weed control at 80 g/ha (POLCO [22]): 80%
- pest or weed control at 5 g/ha (ABUTH [23]; dosage 5 g/ha): 80%
- pest or weed control at 20 g/ha (ABUTH [23]; dosage 20 g/ha): 90%
- pest or weed control at 20 g/ha (ECHCG [24]; 20 g/ha): 90%
- pest or weed control at 80 g/ha (ECHCG [24]; 80 g/ha): 100%
